This note sets out measurements from US20200405697A1, “Antitumor Agent” (Taiho Pharmaceutical Co., Ltd, priority 2017, published 2020).

The test has as its target T1, human RNR (histidine tagged human M1 and human M2 proteins) (Homo sapiens, UniProt P23921).
T1 construct: made in house; host or cells: Escherichia coli
T1 sequence (P23921 1-792): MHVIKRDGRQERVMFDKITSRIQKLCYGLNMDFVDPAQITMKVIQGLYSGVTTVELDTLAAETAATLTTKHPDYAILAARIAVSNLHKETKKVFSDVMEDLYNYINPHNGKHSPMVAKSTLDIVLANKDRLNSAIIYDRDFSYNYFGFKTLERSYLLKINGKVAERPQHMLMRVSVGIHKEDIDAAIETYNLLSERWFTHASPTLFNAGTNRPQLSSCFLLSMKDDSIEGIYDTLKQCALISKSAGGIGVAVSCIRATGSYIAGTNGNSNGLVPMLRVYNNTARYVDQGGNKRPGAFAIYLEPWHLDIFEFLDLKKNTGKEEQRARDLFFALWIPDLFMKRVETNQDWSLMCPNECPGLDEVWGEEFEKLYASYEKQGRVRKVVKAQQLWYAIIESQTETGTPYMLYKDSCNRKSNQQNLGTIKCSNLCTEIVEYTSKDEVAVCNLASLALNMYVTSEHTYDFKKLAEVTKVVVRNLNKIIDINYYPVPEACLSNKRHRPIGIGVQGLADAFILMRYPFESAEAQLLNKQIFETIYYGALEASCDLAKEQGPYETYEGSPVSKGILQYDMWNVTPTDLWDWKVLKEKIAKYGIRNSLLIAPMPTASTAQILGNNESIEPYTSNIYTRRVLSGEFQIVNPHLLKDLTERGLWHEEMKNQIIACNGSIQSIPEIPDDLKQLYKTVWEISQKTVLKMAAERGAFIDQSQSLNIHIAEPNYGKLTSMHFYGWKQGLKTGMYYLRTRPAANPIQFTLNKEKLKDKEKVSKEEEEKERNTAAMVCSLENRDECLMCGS
In words: Human RNR inhibition effect (dCDP formation from CDP). Type of test: biochemical. As to conditions: 10 μM CDP, 37° C. for 30 minutes, read-out: RNR inhibitory activity IC50. The procedure, abridged: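 His-tagged human M1 (isoform 1) and N-terminal 59-aa-truncated M2 (isoform 2), E. coli-expressed, Ni-purified, preincubated 20 min with compound (1% DMSO). Reaction with 10 μM CDP, 2 mM ATP, 0.24 mM NADPH, 6 mM DTT, 4 mM Mg acetate, 100 mM KCl, 50 mM HEPES pH 7.2, 30 min at 37° C. dCDP formed quantified by reverse-phase HPLC after heat stop.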

For `COc1cc(Cl)ccc1S(=O)(=O)N[C@H](c1n[nH]c(=O)o1)[C@H](C)c1c(F)ccc(-c2ccc(Cl)nc2)c1C` [Example 313, 4-chloro-N-((1S,2R)-2-(3-(6-chloropyridin-3-yl)-6-fluoro-2-methylphenyl)-1-(5-oxo-4,5-dihydro-1,3,4-oxadiazol-2-yl)propyl)-2-methoxybenzenesulfonamide], the IC50 is 340 nM. Consider `COc1ccc(-c2ccc(F)c([C@@H](C)[C@H](NS(=O)(=O)c3ccc(Cl)cc3OC)c3n[nH]c(=O)o3)c2C)cn1` [Example 314, 4-chloro-N-((1S,2R)-2-(6-fluoro-3-(6-methoxypyridin-3-yl)-2-methylphenyl)-1-(5-oxo-4,5-dihydro-1,3,4-oxadiazol-2-yl)propyl)-2-methoxybenzenesulfonamide], for which the half-maximal inhibitory concentration (IC50) turned out to be 260 nM. As for `COc1cc(Cl)ccc1S(=O)(=O)N[C@H](c1n[nH]c(=O)o1)[C@H](C)c1c(F)ccc(-c2ccc(N3CCOCC3)nc2)c1C` [Example 315, 4-chloro-N-((1S,2R)-2-(6-fluoro-2-methyl-3-(6-morpholinopyridin-3-yl)phenyl)-1-(5-oxo-4,5-dihydro-1,3,4-oxadiazol-2-yl)propyl)-2-methoxybenzenesulfonamide], the IC50 worked out at 190 nM. Turning to `COc1cc(Cl)ccc1S(=O)(=O)N[C@H](c1n[nH]c(=O)o1)[C@H](C)c1c(F)ccc(-c2cn(C)nc2C)c1C` [Example 317, 4-chloro-N-((1S,2R)-2-(3-(1,3-dimethyl-1H-pyrazol-4-yl)-6-fluoro-2-methylphenyl)-1-(5-oxo-4,5-dihydro-1,3,4-oxadiazol-2-yl)propyl)-2-methoxybenzenesulfonamide], the IC50 came to 280 nM. Regarding `COc1cc(Cl)ccc1S(=O)(=O)N[C@H](c1n[nH]c(=O)o1)[C@H](C)c1c(F)ccc(-c2cncnc2)c1C` [Example 318, 4-chloro-N-((1S,2R)-2-(6-fluoro-2-methyl-3-(pyrimidin-5-yl)phenyl)-1-(5-oxo-4,5-dihydro-1,3,4-oxadiazol-2-yl)propyl)-2-methoxybenzenesulfonamide], the IC50 was 540 nM. In the case of `COc1ncc(-c2ccc(F)c([C@@H](C)[C@H](NS(=O)(=O)c3ccc(Cl)cc3OC)c3n[nH]c(=O)o3)c2C)cn1` [Example 319, 4-chloro-N-((1S,2R)-2-(6-fluoro-3-(2-methoxypyrimidin-5-yl)-2-methylphenyl)-1-(5-oxo-4,5-dihydro-1,3,4-oxadiazol-2-yl)propyl)-2-methoxybenzenesulfonamide] it was 280 nM; in that of `COc1cc(Cl)ccc1S(=O)(=O)N[C@H](c1n[nH]c(=O)o1)[C@H](C)c1c(F)ccc(-c2ccc(N3CCCCC3)nc2)c1C` [Example 320, 4-chloro-N-((1S,2R)-2-(6-fluoro-2-methyl-3-(6-(piperidin-1-yl)pyridin-3-yl)phenyl)-1-(5-oxo-4,5-dihydro-1,3,4-oxadiazol-2-yl)propyl)-2-methoxybenzenesulfonamide], 600 nM; in that of `COc1cc(Cl)ccc1S(=O)(=O)N[C@H](c1n[nH]c(=O)o1)[C@H](C)c1c(F)ccc(-c2cnc3c(c2)OCCN3C)c1C` [Example 322, 4-chloro-N-((1S,2R)-2-(6-fluoro-2-methyl-3-(4-methyl-3,4-dihydro-2H-pyrido[3,2-b][1,4]oxazine-7-yl)phenyl)-1-(5-oxo-4,5-dihydro-1,3,4-oxadiazol-2-yl)propyl)-2-methoxybenzenesulfonamide], 220 nM.

Turning to `COc1cc(Cl)ccc1S(=O)(=O)N[C@H](c1n[nH]c(=O)o1)[C@H](C)c1c(F)ccc(-c2cncc(C(=O)N3CCOCC3)c2)c1C` [Example 323, 4-chloro-N-((1S,2R)-2-(6-fluoro-2-methyl-3-(5-(morpholine-4-carbonyl)pyridin-3-yl)phenyl)-1-(5-oxo-4,5-dihydro-1,3,4-oxadiazol-2-yl)propyl)-2-methoxybenzenesulfonamide], the 50% inhibitory concentration (IC50) was 420 nM.

Regarding `Cc1c(-c2cnn(C)c2)ccc(F)c1[C@@H](C)[C@H](NS(=O)(=O)c1ccc(Cl)cc1C(N)=O)c1n[nH]c(=O)o1` [Example 324, 5-chloro-2-(N-((1S,2R)-2-(6-fluoro-2-methyl-3-(1-methyl-1H-pyrazol-4-yl)phenyl)-1-(5-oxo-4,5-dihydro-1,3,4-oxadiazol-2-yl)propyl)sulfamoyl)benzamide], the IC50 was 170 nM. For the compound `Cc1ccc(F)c([C@@H](C)[C@H](NS(=O)(=O)c2ccc(Cl)c(-c3cnn(C)c3)c2)c2n[nH]c(=O)o2)c1C` [Example 325, 4-chloro-N-((1S,2R)-2-(6-fluoro-2,3-dimethylphenyl)-1-(5-oxo-4,5-dihydro-1,3,4-oxadiazol-2-yl)propyl)-3-(1-methyl-1H-pyrazol-4-yl)benzenesulfonamide], the 50% inhibitory concentration (IC50) came out at 220 nM.

`Cc1c(Br)ccc(F)c1[C@@H](C)[C@H](NS(=O)(=O)c1ccc(Cl)c2c1OCCC2(C)N)c1n[nH]c(=O)o1` (stereo partly drawn) [Example 329, 4-amino-N-((1S,2R)-2-(3-bromo-6-fluoro-2-methylphenyl)-1-(5-oxo-4,5-dihydro-1,3,4-oxadiazol-2-yl)propyl)-5-chloro-4-methyl-chroman-8-sulfonamide]: the IC50 came out at 60 nM. Then `Cc1ccc(F)c([C@@H](C)[C@H](NS(=O)(=O)c2cc(-c3nnco3)ccc2C(N)=O)c2n[nH]c(=O)o2)c1C` [Example 331, 2-(N-((1S,2R)-2-(6-fluoro-2,3-dimethylphenyl)-1-(5-oxo-4,5-dihydro-1,3,4-oxadiazol-2-yl)propyl)sulfamoyl)-4-(1,3,4-oxadiazol-2-yl)benzamide], with 90 nM; and `Cc1ccc(F)c([C@@H](C)[C@H](NS(=O)(=O)c2ccc(Br)cc2C(N)=O)c2n[nH]c(=S)o2)c1C` [Example 332, 5-bromo-2-(N-((1S,2R)-2-(6-fluoro-2,3-dimethylphenyl)-1-(5-thioxo-4,5-dihydro-1,3,4-oxadiazol-2-yl)propyl)sulfamoyl)benzamide], with 130 nM; and `COC(=O)c1c(Cl)ccc(S(=O)(=O)N[C@H](c2n[nH]c(=S)o2)[C@H](C)c2cccc3c2CCC3)c1Cl` [Example 333, methyl 2,6-dichloro-3-(N-((1S,2R)-2-(2,3-dihydro-1H-inden-4-yl)-1-(5-thioxo-4,5-dihydro-1,3,4-oxadiazol-2-yl)propyl)sulfamoyl)benzoate], with 310 nM. For the compound `COC(=O)c1cc(S(=O)(=O)N[C@H](c2n[nH]c(=S)o2)[C@H](C)c2cccc3c2CCC3)ccc1Cl` [Example 334, methyl 2-chloro-5-(N-((1S,2R)-2-(2,3-dihydro-1H-inden-4-yl)-1-(5-thioxo-4,5-dihydro-1,3,4-oxadiazol-2-yl)propyl)sulfamoyl)benzoate], the concentration for half-maximal inhibition (IC50) was found to be 830 nM. In the case of `Cc1ccc(F)c([C@@H](C)[C@@H](c2n[nH]c(=O)o2)N(C)S(=O)(=O)c2ccc(Cl)cc2C(N)=O)c1C` [Example 337, 5-chloro-2-(N-((1S,2R)-2-(6-fluoro-2,3-dimethylphenyl)-1-(5-oxo-4,5-dihydro-1,3,4 oxadiazol-2-yl)propyl)-N-methylsulfamoyl)benzamide] it was 80 nM; in that of `Cc1ccc(F)c([C@@H](C)[C@H](NS(=O)(=O)c2ccc(Br)cc2OC(F)(F)F)c2n[nH]c(=O)o2)c1C` [Example 338, 4-bromo-N-((1S,2R)-(6-fluoro-2,3-dimethylphenyl)-1-(5-oxo-4,5-dihydro-1,3,4-oxadiazol-2-yl)propyl)-2-(trifluoromethoxy)benzenesulfonamide], 100 nM; in that of `Cc1ccc(F)c([C@@H](C)[C@H](NS(=O)(=O)c2cc(F)c(Br)cc2F)c2n[nH]c(=O)o2)c1C` [Example 339, 4-bromo-2,5-difluoro-N-((1S,2R)-(6-fluoro-2,3-dimethylphenyl)-1-(5-oxo-4,5-dihydro-1,3,4-oxadiazol-2-yl)propyl)benzenesulfonamide], 510 nM. In the case of `Cc1ccc(F)c([C@@H](C)[C@H](NS(=O)(=O)c2ccc([N+](=O)[O-])cc2)c2n[nH]c(=O)o2)c1C` [Example 340, N-((1S,2R)-(6-fluoro-2,3-dimethylphenyl)-1-(5-oxo-4,5-dihydro-1,3,4-oxadiazol-2-yl)propyl)-4-nitrobenzenesulfonamide] it was 270 nM. Then `Cc1ccc(F)c([C@@H](C)[C@H](NS(=O)(=O)c2ccc(C#N)cc2)c2n[nH]c(=O)o2)c1C` [Example 341, 4-cyano-N-((1S,2R)-(6-fluoro-2,3-dimethylphenyl)-1-(5-oxo-4,5-dihydro-1,3,4-oxadiazol-2-yl)propyl)benzenesulfonamide], with 410 nM; and `COc1cc(C#N)ccc1S(=O)(=O)N[C@H](c1n[nH]c(=O)o1)[C@H](C)c1c(F)ccc(C)c1C` [Example 342, 4-cyano-N-((1S,2R)-(6-fluoro-2,3-dimethylphenyl)-1-(5-oxo-4,5-dihydro-1,3,4-oxadiazol-2-yl)propyl)-2-methoxybenzenesulfonamide], with 90 nM.
